No end group written: not given here.
What was measured:
[1] = test system: ancA6 (last common ancestor of S100A6 orthologs); experiment: ITC of peptide binding to reconstructed ancestor ancA6
human S100A6 (hA6) = human S100A6 (hA6) (Homo sapiens, UniProt P06703); experiment: ITC of peptide binding to human S100A6; conditions: single-site model
S100A6 orthologs = experiment: ITC of peptide binding to S100A6 orthologs; conditions: 2 mM CaCl2, pH 7.4
hA5 A83m = experiment: ITC of peptide binding to hA5 A83m mutant; design: species or system Homo sapiens; conditions: single ancestral reversion in hA5
human S100A5 (hA5) = molecular target: T1, human S100A5 (hA5) (Homo sapiens, UniProt P33763); experiment: ITC of peptide binding to human S100A5; conditions: 2 mM CaCl2, pH 7.4
T1 sequence (P33763 1-92): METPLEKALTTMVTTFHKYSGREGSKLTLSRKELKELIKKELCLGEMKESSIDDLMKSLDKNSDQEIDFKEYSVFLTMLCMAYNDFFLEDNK

binding to ancA6 (in words) [1]: binding
fx comp (human S100A6 (hA6); ITC fit parameter, same buffer): 1.5 ± 0.1
ΔH° (human S100A6 (hA6); ITC, 25 mM TES, 100 mM NaCl, 2 mM CaCl2, 1 mM TCEP, pH 7.4, Bayesian fit): 2.9 ± 0.3 kcal/mol
binding to all S100A6 orthologs (in words) (S100A6 orthologs): bound
binding to hA5 A83m (in words) (hA5 A83m): enabled it to bind
binding to hA5 (in words) (human S100A5 (hA5)): did not bind
Sequence: SEGLMNVLKKIYEDGDDDMKRTINKAWVESR [SIP]

Reference: paper PMC5995566 (Biochemistry, 2017)
